Assay results: patent US20250257055A1, “TERTIARY AMIDE DERIVATIVES SUBSTITUTED WITH 4-MEMBERED RING STRUCTURE” (Sumitomo Pharma Co., Ltd., priority 2024, published 2025)
In brackets after ≈: the same amount, converted by molar mass. Read-outs that look alike come from different tables or passages of the source.

Columns and labels:
[1] = target: recombinant p300 (Homo sapiens (Human), UniProt Q09472); assay: HAT activity inhibition experiment (SensoLyte HAT(p300) Assay Kit); assay type: biochemical; conditions: recombinant p300, histone H3 peptide, acetyl CoA
Procedure: The HAT activity inhibitory ability of HAT inhibitors was evaluated using SensoLyte HAT(p300) Assay Kit (ANASPEC, AS-72172). Specifically, 7.5 μL of the compound of Examples […] diluted with assay buffer was added to 7.5 μL of recombinant p300 solution diluted 10 times with assay buffer, and the mixture was incubated at room temperature for 10 minutes. 7.5 μL of acetyl CoA solution diluted 10 times with assay buffer and 15 μL of histone H3 peptide diluted 10 times with assay buffer were added thereto, and the mixture was incubated at 37° C. for 30 minutes. 37.5 μL of Stop Solution was added to stop the reaction. 75 μL of p300 Developer solution diluted 50 times with assay buffer was added, and the mixture was incubated at room temperature for 30 minutes under light-shielded conditions. The fluorescence at 513 nm when irradiated with 389 nm excitation light was measured using a multiplate reader.

[2] = tested on: Kuramochi cells; assay: Cell proliferation inhibition experiment using Kuramochi cells; assay type: cell-based; conditions: 144 h, cultured for 6 days, CellTiter-Glo
Procedure: Kuramochi cells (derived from ovarian cancer) were obtained from JCRB (Japanese Collection of Research Bioresources) cell bank. Kuramochi cells were cultured in RPMI-1640 medium containing 10% fetal bovine serum and 1% penicillin/streptomycin under conditions of 37° C. and 5% CO2.
(§1) 500 cells per well were seeded in a 384-well plate. One day after seeding, Examples 3, 7, 9, 10, 11, 20, 23 to 25, and 30 to 34 were added so that the final concentration of DMSO was 0.1%, and the cells were cultured for 6 days. After the culture was completed, the cell viability was measured using CellTiter-Glo Luminescent Cell Viability Assay (Promega, G7570).

[3] = Membrane permeability test (PAMPA); assay type: in vitro ADME
Procedure: The membrane permeability of the test compound was tested by parallel artificial membrane permeability assay (PAMPA) as follows. 200 μL of System solution (pION Inc.) containing the test compound and 4 μL of GIT Lipid-0 (pION Inc.) were added to the donor plate. 200 μL of Acceptor Sink Buffer (pION Inc.) was added to the acceptor plate. Both plates were overlapped and incubated at 37° C. for 4 hours, after which the UV of the solutions on the acceptor side and donor side was measured using a UV plate reader (190-500 nm). Compounds with poor UV absorption were measured using LC-MS. The permeability coefficient Pe (10^−6 cm/sec) of the drug was calculated using the following equation.

[4] = Solubility test; assay type: physicochemical; conditions: aqueous buffer, thermodynamic from solid, 5° C., overnight
Procedure: The solubility was measured for Examples 7, 10, 20, 23, 24, and 30 to 34, Comparative Example 1, and Comparative Example 2. The test compound was added to 10 mmol/L glycine buffer (pH 2.0) and 10 mmol/L citrate buffer (pH 3.0), and the mixture was stored in a thermostatic chamber at 5° C. After standing overnight, the mixture was filtered through a membrane filter, and the concentration of the filtrate was measured by HPLC.

[5] = tested on: G-401 cells; assay: Cell proliferation inhibition experiment using G-401 cells; assay type: cell-based; conditions: Homo sapiens, 72 h, cultured for 3 days, CellTiter-Glo
Procedure: G-401 cells (derived from malignant rhabdoid tumor) were obtained from the American Type Culture Collection (ATCC). G-401 cells were cultured in McCoy's 5A medium containing 10% fetal bovine serum and 1% penicillin/streptomycin under conditions of 37° C. and 5% CO2.
as §1, with “1” for “3, 7, 9, 10, 11, 20, 23”, “35” for “25, and 30 to 34”, “3” for “6”

[6] = Pharmacokinetic study in mice; assay type: in vivo; conditions: for AUC / clearance / half-life / Vd / Cmax: female, BALB/c (BALB/cAnN CrlCrlj), mouse, plasma; for Vd: read-out: Vdss
Procedure: The test compound was administered to 7-week-old female BALB/c (BALB/cAnN CrlCrlj) mice intravenously (dosage: 1 mg/kg) in a 50% PEG solution (0.01 mol/L HCl) or orally (dosage: 10 mg/kg) in a 0.5% methylcellulose aqueous solution, and blood was collected at the following times:
Intravenous administration: 5 min, 15 min, 30 min, 1 hr, 2 hr, 4 hr, 6 hr, and 24 hr after administration
Oral administration: 15 min, 30 min, 1 hr, 2 hr, 4 hr, 6 hr, and 24 hr after administration
The collected blood was centrifuged at 3000 rpm×10 min using a refrigerated centrifuge set at 4° C., and the obtained plasma was measured by LC-MS. A calibration curve was prepared from the value (peak ratio) obtained by dividing the peak area of the test substance by the peak area of the internal standard substance in MS and the concentration of the plasma calibration curve sample. The concentration in the sample was calculated from the peak ratio and the calibration curve of each sample.

[7] = pH 5.0, 37° C., read-out: pH 5.0 Pe
[8] = pH 7.4, 37° C., read-out: pH 7.4 Pe
[9] = 10 mmol/L citrate buffer (pH 3.0), read-out: Solubility in pH 3.0 buffer
[10] = 10 mmol/L glycine buffer (pH 2.0), read-out: Solubility in pH 2.0 buffer

Sequence of recombinant p300 (Q09472 whole entry): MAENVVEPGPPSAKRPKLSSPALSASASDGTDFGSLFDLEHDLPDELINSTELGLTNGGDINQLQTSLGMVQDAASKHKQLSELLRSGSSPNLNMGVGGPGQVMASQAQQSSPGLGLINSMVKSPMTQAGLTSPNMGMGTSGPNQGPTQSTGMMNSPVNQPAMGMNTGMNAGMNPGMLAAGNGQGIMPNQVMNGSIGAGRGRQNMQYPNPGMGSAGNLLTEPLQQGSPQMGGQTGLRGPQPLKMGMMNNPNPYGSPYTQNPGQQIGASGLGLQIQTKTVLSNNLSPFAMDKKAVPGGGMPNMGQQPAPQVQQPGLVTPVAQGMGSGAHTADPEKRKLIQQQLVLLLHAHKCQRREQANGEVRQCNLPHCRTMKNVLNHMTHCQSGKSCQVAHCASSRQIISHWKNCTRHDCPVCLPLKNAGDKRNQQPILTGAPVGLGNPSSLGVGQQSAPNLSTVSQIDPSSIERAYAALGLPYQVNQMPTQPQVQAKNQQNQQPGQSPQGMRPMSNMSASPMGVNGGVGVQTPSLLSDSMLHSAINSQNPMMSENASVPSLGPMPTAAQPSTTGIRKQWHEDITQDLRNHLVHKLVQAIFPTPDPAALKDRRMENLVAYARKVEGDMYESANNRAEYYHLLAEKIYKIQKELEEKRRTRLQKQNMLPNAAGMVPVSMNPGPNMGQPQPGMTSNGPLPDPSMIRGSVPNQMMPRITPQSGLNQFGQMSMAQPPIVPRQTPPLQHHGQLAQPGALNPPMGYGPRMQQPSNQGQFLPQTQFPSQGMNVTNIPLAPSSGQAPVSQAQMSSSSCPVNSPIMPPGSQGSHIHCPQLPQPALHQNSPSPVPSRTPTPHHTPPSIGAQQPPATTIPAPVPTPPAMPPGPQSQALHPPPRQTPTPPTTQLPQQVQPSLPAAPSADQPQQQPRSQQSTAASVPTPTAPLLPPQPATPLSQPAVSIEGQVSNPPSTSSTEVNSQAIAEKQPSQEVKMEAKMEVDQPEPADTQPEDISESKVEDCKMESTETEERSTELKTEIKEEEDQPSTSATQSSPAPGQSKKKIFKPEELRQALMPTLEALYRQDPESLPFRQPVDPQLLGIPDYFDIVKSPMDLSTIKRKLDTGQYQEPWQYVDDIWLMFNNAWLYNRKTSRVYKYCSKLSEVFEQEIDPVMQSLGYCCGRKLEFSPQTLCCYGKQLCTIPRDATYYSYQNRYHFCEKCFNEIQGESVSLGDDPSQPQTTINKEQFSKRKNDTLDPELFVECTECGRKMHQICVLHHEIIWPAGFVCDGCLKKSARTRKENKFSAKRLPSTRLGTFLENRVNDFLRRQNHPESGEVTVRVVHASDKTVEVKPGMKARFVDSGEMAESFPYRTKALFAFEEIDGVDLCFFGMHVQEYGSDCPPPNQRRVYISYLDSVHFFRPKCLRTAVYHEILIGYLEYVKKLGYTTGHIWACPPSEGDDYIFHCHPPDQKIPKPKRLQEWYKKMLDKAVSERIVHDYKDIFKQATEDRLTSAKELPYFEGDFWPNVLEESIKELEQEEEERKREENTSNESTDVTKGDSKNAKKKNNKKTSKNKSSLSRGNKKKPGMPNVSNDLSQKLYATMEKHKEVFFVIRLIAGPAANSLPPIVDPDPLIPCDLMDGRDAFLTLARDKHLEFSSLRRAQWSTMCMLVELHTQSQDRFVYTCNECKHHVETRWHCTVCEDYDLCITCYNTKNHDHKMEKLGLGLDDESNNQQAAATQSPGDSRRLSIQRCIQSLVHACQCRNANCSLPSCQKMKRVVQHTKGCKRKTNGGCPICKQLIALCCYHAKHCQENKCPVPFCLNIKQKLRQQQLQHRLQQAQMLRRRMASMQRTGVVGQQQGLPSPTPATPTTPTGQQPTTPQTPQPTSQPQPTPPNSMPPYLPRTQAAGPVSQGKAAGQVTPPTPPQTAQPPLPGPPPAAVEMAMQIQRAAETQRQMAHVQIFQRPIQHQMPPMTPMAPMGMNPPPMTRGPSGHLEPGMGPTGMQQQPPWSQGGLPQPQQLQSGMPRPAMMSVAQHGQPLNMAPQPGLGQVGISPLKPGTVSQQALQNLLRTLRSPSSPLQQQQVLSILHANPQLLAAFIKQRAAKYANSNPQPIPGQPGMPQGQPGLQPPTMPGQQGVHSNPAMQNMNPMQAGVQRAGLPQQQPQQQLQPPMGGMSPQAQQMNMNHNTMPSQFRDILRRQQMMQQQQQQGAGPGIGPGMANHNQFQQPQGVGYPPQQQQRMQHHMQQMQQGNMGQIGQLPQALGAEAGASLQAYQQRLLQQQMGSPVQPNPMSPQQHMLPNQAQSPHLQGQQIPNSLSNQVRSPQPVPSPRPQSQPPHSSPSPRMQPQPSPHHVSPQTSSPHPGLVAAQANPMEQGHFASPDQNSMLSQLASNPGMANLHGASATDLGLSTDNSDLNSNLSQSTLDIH

Structure (SMILES)	IC50 [1]	IC50 [2]	Papp at 4 h [3, 7]	Papp at 4 h [3, 8]	solubility [4, 9]	solubility [4, 10]	IC50 [5]	AUC ([6]; intravenous, 1 mg/kg)	clearance ([6]; intravenous, 1 mg/kg)	half-life ([6]; intravenous, 1 mg/kg)	Vd ([6]; intravenous, 1 mg/kg)	AUC ([6]; oral, 10 mg/kg)	Cmax ([6]; oral, 10 mg/kg)	BA ([6]; oral, 10 mg/kg)
CCn1cc(-c2ccc3c(c2)[C@H](F)C[C@]32NC(=O)N(CC(=O)N(Cc3ccc(F)cn3)C3(C(F)(F)F)CN(C)C3)C2=O)cn1 [Example 32, 2-[(1′S,3′R)-5′-(1-ethyl-1H-pyrazol-4-yl)-3′-fluoro-2,5-dioxo-2′,3′-dihydrospiro[imidazolidine-4,1′-inden]-1-yl]-N-[(5-fluoropyridin-2-yl)methyl]-N-[1-methyl-3-(trifluoromethyl)azetidin-3-yl]acetamide]	0.4 nM	53 nM	15.4 ×10⁻⁶ cm/s	26.6 ×10⁻⁶ cm/s	> 10000 µg/mL	> 10000 µg/mL	5 nM							
CN1CC(N(Cc2ccc(F)cn2)C(=O)CN2C(=O)N[C@]3(C[C@@H](F)c4cc(-c5cnn(C6CCC6)c5)ccc43)C2=O)(C(F)(F)F)C1 [Example 34, 2-[(1′S,3′R)-5′-(1-cyclobutyl-1H-pyrazol-4-yl)-3′-fluoro-2,5-dioxo-2′,3′-dihydrospiro[imidazolidine-4,1′-inden]-1-yl]-N-[(5-fluoropyridin-2-yl)methyl]-N-[1-methyl-3-(trifluoromethyl)azetidin-3-yl]acetamide]	0.2 nM	45 nM	24.4 ×10⁻⁶ cm/s	34.9 ×10⁻⁶ cm/s	8100 µg/mL (≈ 12.6 mM)	> 10000 µg/mL	5 nM							
O=C1N[C@]2(C[C@@H](F)c3cc(-c4cnn(C5CN(C6COC6)C5)c4)ccc32)C(=O)N1CC(=O)N(Cc1ccc(F)cc1)C1(C(F)(F)F)CC(F)(F)C1 [Example 4, N-[3,3-difluoro-1-(trifluoromethyl)cyclobutyl]-2-[(1′S,3′R)-3′-fluoro-5′-{1-[1-(oxetan-3-yl)azetidin-3-yl]-1H-pyrazol-4-yl}-2,5-dioxo-2′,3′-dihydrospiro[imidazolidine-4,1′-inden]-1-yl]-N-[(4-fluorophenyl)methyl]acetamide]	0.5 nM		25.7 ×10⁻⁶ cm/s	31.2 ×10⁻⁶ cm/s			43 nM	2100 ng·h/mL	6.8 mL/min/kg	2.3 h	1.2 L/kg	28700 ng·h/mL	8300 ng/mL	136.3%
CC(C)n1cc(-c2ccc3c(c2)[C@H](F)C[C@]32NC(=O)N(CC(=O)N(Cc3ccc(F)cc3)C3(C(F)(F)F)CN(C)C3)C2=O)cn1 [Example 31, 2-{(1′S,3′R)-3′-fluoro-2,5-dioxo-5′-[1-(propan-2-yl)-1H-pyrazol-4-yl]-2′,3′-dihydrospiro[imidazolidine-4,1′-inden]-1-yl}-N-[(4-fluorophenyl)methyl]-N-[1-methyl-3-(trifluoromethyl)azetidin-3-yl]acetamide]	1 nM	8 nM	31.3 ×10⁻⁶ cm/s	34.9 ×10⁻⁶ cm/s	1400 µg/mL (≈ 2.22 mM)	7100 µg/mL (≈ 11.3 mM)	1 nM							
CN1CC(N(Cc2ccc(F)cc2)C(=O)CN2C(=O)N[C@]3(CCc4cc(-c5cnn(C)c5)ccc43)C2=O)(C(F)(F)F)C1 [Example 12, N-[(4-fluorophenyl)methyl]-2-[(1′S)-5′-(1-methyl-1H-pyrazol-4-yl)-2,5-dioxo-2′,3′-dihydrospiro[imidazolidine-4,1′-inden]-1-yl]-N-[1-methyl-3-(trifluoromethyl)azetidin-3-yl]acetamide]	6.3 nM		24 ×10⁻⁶ cm/s	28.9 ×10⁻⁶ cm/s			82 nM	465 ng·h/mL	35.7 mL/min/kg	0.97 h	1.6 L/kg	1400 ng·h/mL	1290 ng/mL	30.0%
CN1CC(F)(Cn2cc(-c3ccc4c(c3)CC[C@]43NC(=O)N(CC(=O)N(Cc4ccc(F)cc4)C4(C(F)(F)F)COC4)C3=O)cn2)C1 [Example 2, 2-[(1′S)-5′-{1-[(3-fluoro-1-methylazetidin-3-yl)methyl]-1H-pyrazol-4-yl}-2,5-dioxo-2′,3′-dihydrospiro[imidazolidine-4,1′-inden]-1-yl]-N-[(4-fluorophenyl)methyl]-N-[3-(trifluoromethyl)oxetan-3-yl]acetamide]	19 nM		7.4 ×10⁻⁶ cm/s	19 ×10⁻⁶ cm/s			89 nM							
CN1CCn2ncc(-c3ccc4c(c3)[C@H](F)C[C@]43NC(=O)N(CC(=O)N(Cc4ccc(F)cc4)C4(C(F)(F)F)COC4)C3=O)c2C1 [Example 14, 2-[(1′S, 3′R)-3′-fluoro-5′-(5-methyl-4,5,6,7-tetrahydropyrazolo[1,5-a]pyrazin-3-yl)-2,5-dioxo-2′,3′-dihydrospiro[imidazolidine-4,1′-inden]-1-yl]-N-[(4-fluorophenyl)methyl]-N-[3-(trifluoromethyl)oxetan-3-yl]acetamide]	124 nM		26.1 ×10⁻⁶ cm/s	27.9 ×10⁻⁶ cm/s			677 nM							
O=C1N[C@]2(CCc3cc(-c4cnn(C5CN(C6COC6)C5)c4)ccc32)C(=O)N1CC(=O)N(Cc1ccc(F)cc1)C1(C(F)(F)F)COC1 [Example 1, N-[(4-fluorophenyl)methyl]-2-[(1′S)-5′-{1-[1-(oxetan-3-yl)azetidin-3-yl]-1H-pyrazol-4-yl}-2,5-dioxo-2′,3′-dihydrospiro[imidazolidine-4,1′-inden]-1-yl]-N-[3-(trifluoromethyl)oxetan-3-yl]acetamide]	16 nM		16.2 ×10⁻⁶ cm/s	20.6 ×10⁻⁶ cm/s			181 nM	575 ng·h/mL	28.6 mL/min/kg	1.1 h	1.8 L/kg	4350 ng·h/mL	3770 ng/mL	75.7%
O=C1N[C@]2(CCc3cc(-c4cnn(C5CN(C6COC6)C5)c4)ccc32)C(=O)N1CC(=O)N(Cc1ccc(F)cc1)C1(C(F)(F)F)CC(F)(F)C1 [Example 5, N-[3,3-difluoro-1-(trifluoromethyl)cyclobutyl]-N-[(4-fluorophenyl)methyl]-2-[(1'S)-5′-{1-[1-(oxetan-3-yl)azetidin-3-yl]-1H-pyrazol-4-yl}-2,5-dioxo-2′,3′-dihydrospiro[imidazolidine-4,1′-inden]-1-yl]acetamide]	6.1 nM		25.4 ×10⁻⁶ cm/s	28.4 ×10⁻⁶ cm/s			88 nM	875 ng·h/mL	17.6 mL/min/kg	1.75 h	2.1 L/kg	7300 ng·h/mL	3500 ng/mL	83.4%
